{"source": "the OligoGym collection", "note": "Oligonucleotides are written 5' to 3', each unit as a sugar letter and its base; * is a phosphorothioate linkage, no mark a phosphodiester; rarer units and linkages stand in square brackets, end groups in braces. Plain capitals give the bases only. d = 2'-deoxy (DNA); r = 2'-OH (RNA); also: test concentration or dose not given here", "data": [{"molecular_target": "UBE2B", "experiment": "reporter assay of Huesken 2005", "settings": "siRNA", "units": {"normalised inhibition (eCFP-eYFP dual reporter)": "%"}, "values": [{"substance": "sense rArArUrGrUrUrUrCrArUrCrCrArArArUrGrUrGdTdT / antisense rCrArCrArUrUrUrGrGrArUrGrArArArCrArUrUdTdT", "normalised inhibition (eCFP-eYFP dual reporter)": 63.5}, {"substance": "sense rUrArGrUrArArUrArGrArArUrUrUrUrCrUrGrAdTdT / antisense rUrCrArGrArArArArUrUrCrUrArUrUrArCrUrAdGdT", "normalised inhibition (eCFP-eYFP dual reporter)": 72.3}, {"substance": "sense rArArCrArUrCrArUrGrCrArGrUrGrGrArArUrGdTdT / antisense rCrArUrUrCrCrArCrUrGrCrArUrGrArUrGrUrUdGdT", "normalised inhibition (eCFP-eYFP dual reporter)": 55}, {"substance": "sense rCrArArArUrGrUrGrUrArUrGrCrUrGrArUrGrGdTdT / antisense rCrCrArUrCrArGrCrArUrArCrArCrArUrUrUrGdGdA", "normalised inhibition (eCFP-eYFP dual reporter)": 62.6}, {"substance": "sense rArCrCrArUrCrUrGrArArArArCrArArCrArUrCdTdT / antisense rGrArUrGrUrUrGrUrUrUrUrCrArGrArUrGrGrUdGdC", "normalised inhibition (eCFP-eYFP dual reporter)": 50.8}, {"substance": "sense rArArUrArGrCrCrArGrGrCrArGrCrArCrArGrCdTdT / antisense rGrCrUrGrUrGrCrUrGrCrCrUrGrGrCrUrArUrUdGdG", "normalised inhibition (eCFP-eYFP dual reporter)": 51}, {"substance": "sense rUrArGrArUrArUrCrCrUrUrCrArGrArArUrCrGdTdT / antisense rCrGrArUrUrCrUrGrArArGrGrArUrArUrCrUrAdAdA", "normalised inhibition (eCFP-eYFP dual reporter)": 47.9}, {"substance": "sense rArGrUrUrArUrArUrUrUrGrGrArCrCrArGrArAdTdT / antisense rUrUrCrUrGrGrUrCrCrArArArUrArUrArArCrUdGdC", "normalised inhibition (eCFP-eYFP dual reporter)": 79}, {"substance": "sense rArGrUrCrCrArGrCrCrArArUrArGrCrCrArGrGdTdT / antisense rCrCrUrGrGrCrUrArUrUrGrGrCrUrGrGrArCrUdGdT", "normalised inhibition (eCFP-eYFP dual reporter)": 68.7}, {"substance": "sense rGrArArUrCrGrArUrGrGrArGrUrCrCrArArCrAdTdT / antisense rUrGrUrUrGrGrArCrUrCrCrArUrCrGrArUrUrCdTdG", "normalised inhibition (eCFP-eYFP dual reporter)": 84.1}, {"substance": "sense rArUrCrCrUrUrCrArGrArArUrCrGrArUrGrGrAdTdT / antisense rUrCrCrArUrCrGrArUrUrCrUrGrArArGrGrArUdAdT", "normalised inhibition (eCFP-eYFP dual reporter)": 77.2}, {"substance": "sense rUrCrCrArArArUrArArArCrCrArCrCrArArCrUdTdT / antisense rArGrUrUrGrGrUrGrGrUrUrUrArUrUrUrGrGrAdTdA", "normalised inhibition (eCFP-eYFP dual reporter)": 61.8}, {"substance": "sense rGrUrUrUrCrGrGrCrCrArUrUrGrUrUrGrArArCdTdT / antisense rGrUrUrCrArArCrArArUrGrGrCrCrGrArArArCdTdC", "normalised inhibition (eCFP-eYFP dual reporter)": 61.6}, {"substance": "sense rGrCrArCrCrArUrCrUrGrArArArArCrArArCrAdTdT / antisense rUrGrUrUrGrUrUrUrUrCrArGrArUrGrGrUrGrCdGdC", "normalised inhibition (eCFP-eYFP dual reporter)": 74.2}, {"substance": "sense rGrArUrGrUrArUrCrUrUrCrUrArUrCrUrUrArAdTdT / antisense rUrUrArArGrArUrArGrArArGrArUrArCrArUrCdAdT", "normalised inhibition (eCFP-eYFP dual reporter)": 84.7}, {"substance": "sense rCrGrArGrArArUrArUrGrArGrArArArArGrArGdTdT / antisense rCrUrCrUrUrUrUrCrUrCrArUrArUrUrCrUrCrGdTdT", "normalised inhibition (eCFP-eYFP dual reporter)": 73.5}, {"substance": "sense rArUrArGrCrCrArGrGrCrArGrCrArCrArGrCrUdTdT / antisense rArGrCrUrGrUrGrCrUrGrCrCrUrGrGrCrUrArUdTdG", "normalised inhibition (eCFP-eYFP dual reporter)": 71.2}, {"substance": "sense rGrArGrArArUrArUrGrArGrArArArArGrArGrUdTdT / antisense rArCrUrCrUrUrUrUrCrUrCrArUrArUrUrCrUrCdGdT", "normalised inhibition (eCFP-eYFP dual reporter)": 83.6}, {"substance": "sense rCrArGrUrGrGrCrGrCrArCrCrArUrCrUrGrArAdTdT / antisense rUrUrCrArGrArUrGrGrUrGrCrGrCrCrArCrUrGdAdC", "normalised inhibition (eCFP-eYFP dual reporter)": 61.8}, {"substance": "sense rCrArGrUrGrGrArArUrGrCrArGrUrUrArUrArUdTdT / antisense rArUrArUrArArCrUrGrCrArUrUrCrCrArCrUrGdCdA", "normalised inhibition (eCFP-eYFP dual reporter)": 83.5}, {"substance": "sense rGrArArCrCrGrArArUrCrCrUrArArCrArGrUrCdTdT / antisense rGrArCrUrGrUrUrArGrGrArUrUrCrGrGrUrUrCdAdT", "normalised inhibition (eCFP-eYFP dual reporter)": 72.7}, {"substance": "sense rUrCrUrGrArArArArCrArArCrArUrCrArUrGrCdTdT / antisense rGrCrArUrGrArUrGrUrUrGrUrUrUrUrCrArGrAdTdG", "normalised inhibition (eCFP-eYFP dual reporter)": 48.3}, {"substance": "sense rCrArGrCrArCrArGrCrUrUrUrArUrCrArGrGrAdTdT / antisense rUrCrCrUrGrArUrArArArGrCrUrGrUrGrCrUrGdCdC", "normalised inhibition (eCFP-eYFP dual reporter)": 77.5}, {"substance": "sense rGrCrArCrArGrCrUrUrUrArUrCrArGrGrArArAdTdT / antisense rUrUrUrCrCrUrGrArUrArArArGrCrUrGrUrGrCdTdG", "normalised inhibition (eCFP-eYFP dual reporter)": 83.8}, {"substance": "sense rArGrUrCrUrCrUrGrCrUrGrGrArUrGrArArCrCdTdT / antisense rGrGrUrUrCrArUrCrCrArGrCrArGrArGrArCrUdGdA", "normalised inhibition (eCFP-eYFP dual reporter)": 53.1}, {"substance": "sense rArArArCrUrArGrUrArArUrArGrArArUrUrUrUdTdT / antisense rArArArArUrUrCrUrArUrUrArCrUrArGrUrUrUdAdA", "normalised inhibition (eCFP-eYFP dual reporter)": 47.5}, {"substance": "sense rArArUrUrCrArGrUrCrUrCrUrGrCrUrGrGrArUdTdT / antisense rArUrCrCrArGrCrArGrArGrArCrUrGrArArUrUdGdA", "normalised inhibition (eCFP-eYFP dual reporter)": 60.8}, {"substance": "sense rArGrCrCrArArUrArGrCrCrArGrGrCrArGrCrAdTdT / antisense rUrGrCrUrGrCrCrUrGrGrCrUrArUrUrGrGrCrUdGdG", "normalised inhibition (eCFP-eYFP dual reporter)": 75.9}, {"substance": "sense rArArUrCrGrArUrGrGrArGrUrCrCrArArCrArUdTdT / antisense rArUrGrUrUrGrGrArCrUrCrCrArUrCrGrArUrUdCdT", "normalised inhibition (eCFP-eYFP dual reporter)": 74.4}, {"substance": "sense rArCrArArGrArGrGrArCrCrCrArCrCrUrGrUrGdTdT / antisense rCrArCrArGrGrUrGrGrGrUrCrCrUrCrUrUrGrUdAdA", "normalised inhibition (eCFP-eYFP dual reporter)": 61.1}, {"substance": "sense rArArArArGrArGrUrUrUrCrGrGrCrCrArUrUrGdTdT / antisense rCrArArUrGrGrCrCrGrArArArCrUrCrUrUrUrUdCdT", "normalised inhibition (eCFP-eYFP dual reporter)": 49.2}, {"substance": "sense rArArCrCrGrArArUrCrCrUrArArCrArGrUrCrCdTdT / antisense rGrGrArCrUrGrUrUrArGrGrArUrUrCrGrGrUrUdCdA", "normalised inhibition (eCFP-eYFP dual reporter)": 49.9}, {"substance": "sense rCrGrGrGrArUrUrUrCrArArGrCrGrGrUrUrArCdTdT / antisense rGrUrArArCrCrGrCrUrUrGrArArArUrCrCrCrGdCdA", "normalised inhibition (eCFP-eYFP dual reporter)": 85.1}, {"substance": "sense rArGrArArUrCrGrArUrGrGrArGrUrCrCrArArCdTdT / antisense rGrUrUrGrGrArCrUrCrCrArUrCrGrArUrUrCrUdGdA", "normalised inhibition (eCFP-eYFP dual reporter)": 64.8}, {"substance": "sense rArUrGrCrArGrUrUrArUrArUrUrUrGrGrArCrCdTdT / antisense rGrGrUrCrCrArArArUrArUrArArCrUrGrCrArUdTdC", "normalised inhibition (eCFP-eYFP dual reporter)": 53.2}, {"substance": "sense rArUrArUrGrArGrArArArArGrArGrUrUrUrCrGdTdT / antisense rCrGrArArArCrUrCrUrUrUrUrCrUrCrArUrArUdTdC", "normalised inhibition (eCFP-eYFP dual reporter)": 46.3}, {"substance": "sense rArArCrArArCrArUrCrArUrGrCrArGrUrGrGrAdTdT / antisense rUrCrCrArCrUrGrCrArUrGrArUrGrUrUrGrUrUdTdT", "normalised inhibition (eCFP-eYFP dual reporter)": 56.4}, {"substance": "sense rUrArUrCrCrArArArArUrGrUrUrUrCrArUrCrCdTdT / antisense rGrGrArUrGrArArArCrArUrUrUrUrGrGrArUrAdAdA", "normalised inhibition (eCFP-eYFP dual reporter)": 48.2}, {"substance": "sense rCrArGrArArUrCrGrArUrGrGrArGrUrCrCrArAdTdT / antisense rUrUrGrGrArCrUrCrCrArUrCrGrArUrUrCrUrGdAdA", "normalised inhibition (eCFP-eYFP dual reporter)": 86.3}, {"substance": "sense rGrCrUrGrGrArUrGrArArCrCrGrArArUrCrCrUdTdT / antisense rArGrGrArUrUrCrGrGrUrUrCrArUrCrCrArGrCdAdG", "normalised inhibition (eCFP-eYFP dual reporter)": 81.5}, {"substance": "sense rGrArArGrArArUrArUrCrCrArArArUrArArArCdTdT / antisense rGrUrUrUrArUrUrUrGrGrArUrArUrUrCrUrUrCdAdG", "normalised inhibition (eCFP-eYFP dual reporter)": 77.7}, {"substance": "sense rUrUrUrCrUrGrArArGrArArUrArUrCrCrArArAdTdT / antisense rUrUrUrGrGrArUrArUrUrCrUrUrCrArGrArArAdAdT", "normalised inhibition (eCFP-eYFP dual reporter)": 82.5}, {"substance": "sense rCrArUrArUrGrArUrGrUrArUrCrUrUrCrUrArUdTdT / antisense rArUrArGrArArGrArUrArCrArUrCrArUrArUrGdTdT", "normalised inhibition (eCFP-eYFP dual reporter)": 83.9}, {"substance": "sense rCrUrGrArArGrArArUrArUrCrCrArArArUrArAdTdT / antisense rUrUrArUrUrUrGrGrArUrArUrUrCrUrUrCrArGdAdA", "normalised inhibition (eCFP-eYFP dual reporter)": 80.1}, {"substance": "sense rGrArArGrGrGrArCrArCrCrUrUrUrUrGrArArGdTdT / antisense rCrUrUrCrArArArArGrGrUrGrUrCrCrCrUrUrCdTdG", "normalised inhibition (eCFP-eYFP dual reporter)": 79.8}, {"substance": "sense rUrArUrGrUrUrUrArGrArUrArUrCrCrUrUrCrAdTdT / antisense rUrGrArArGrGrArUrArUrCrUrArArArCrArUrAdTdG", "normalised inhibition (eCFP-eYFP dual reporter)": 63.5}, {"substance": "sense rArUrGrUrUrUrArGrArUrArUrCrCrUrUrCrArGdTdT / antisense rCrUrGrArArGrGrArUrArUrCrUrArArArCrArUdAdT", "normalised inhibition (eCFP-eYFP dual reporter)": 46.7}, {"substance": "sense rGrUrArUrGrCrUrGrArUrGrGrUrArGrCrArUrAdTdT / antisense rUrArUrGrCrUrArCrCrArUrCrArGrCrArUrArCdAdC", "normalised inhibition (eCFP-eYFP dual reporter)": 75.7}, {"substance": "sense rUrArUrCrUrUrArArCrArUrCrArArUrUrCrArGdTdT / antisense rCrUrGrArArUrUrGrArUrGrUrUrArArGrArUrAdGdA", "normalised inhibition (eCFP-eYFP dual reporter)": 50.5}, {"substance": "sense rGrArGrArArArArGrArGrUrUrUrCrGrGrCrCrAdTdT / antisense rUrGrGrCrCrGrArArArCrUrCrUrUrUrUrCrUrCdAdT", "normalised inhibition (eCFP-eYFP dual reporter)": 82.7}, {"substance": "sense rArCrCrUrGrUrGrGrGrUrGrUrCrArGrUrGrGrCdTdT / antisense rGrCrCrArCrUrGrArCrArCrCrCrArCrArGrGrUdGdG", "normalised inhibition (eCFP-eYFP dual reporter)": 76.7}]}, {"molecular_target": "UBE2E3", "experiment": "reporter assay of Huesken 2005", "settings": "siRNA", "units": {"normalised inhibition (eCFP-eYFP dual reporter)": "%"}, "values": [{"substance": "sense rUrUrCrCrGrCrArCrCrArGrArArUrCrUrArUrCdTdT / antisense rGrArUrArGrArUrUrCrUrGrGrUrGrCrGrGrArAdAdG", "normalised inhibition (eCFP-eYFP dual reporter)": 42.5}]}]}
